Our source for the MIC values is DBAASP.

Test systems include Pseudomonas aeruginosa; Klebsiella pneumoniae; Shigella dysenteriae; Escherichia coli ML-35.
What all share (experiment): ≥ marks a high value that may be exact or a test limit, other limits are often not marked, values filed in µg/mL are converted to µM
Assay [1] relates to Staphylococcus aureus CCARM 3089.
For assay [2], the system named is Staphylococcus aureus KCTC 1916.
In assay [3] the test system is Escherichia coli CCARM 1229.
Assay [4] relates to Salmonella typhimurium CCARM 8003.
In assay [5] the test system is Escherichia coli KCTC 1682.
The test system of assay [6] is Pseudomonas aeruginosa CCARM 2163.
Assay [7] deals with Staphylococcus aureus CCARM 3114.
For assay [8], the system named is Pseudomonas aeruginosa CCARM 2003.
Assay [9] relates to Salmonella typhimurium CCARM 8007.
Assay [10] concerns Salmonella typhimurium KCTC 1926.
Assay [11] deals with Escherichia coli KCTC 2571.
In assay [12] the test system is Salmonella typhimurium CCARM 8009.
For assay [13], the system named is Escherichia coli KCTC 2593.
Assay [14] relates to Acinetobacter baumannii CCARM 12005.
Assay [15] deals with Pseudomonas aeruginosa KCTC 2004.
The subject of assay [16] is Staphylococcus aureus CCARM 3108.
Assay [17] deals with Bacillus subtilis KCTC 1022.
For assay [18], the system named is Acinetobacter baumannii CCARM 12036.
Assay [19] concerns Acinetobacter baumannii CCARM 12035.
Assay [20] relates to Pseudomonas aeruginosa CCARM 2095.
The test system of assay [21] is Acinetobacter baumannii CCARM 12037.
Assay [22] concerns Staphylococcus aureus CCARM 3126.
Assay [23] has as its system Bacillus subtilis KCTC 1021.
Assay [24] relates to Bacillus subtilis KCTC 3068.
In assay [25] the test system is Pseudomonas aeruginosa CCARM 2002.
In assay [26] the test system is Staphylococcus aureus KCTC 3881.
In assay [27] the test system is Pseudomonas aeruginosa KCTC 1637.
Assay [28] deals with Staphylococcus aureus CCARM 3090.
The test system of assay [29] is Staphylococcus aureus KCTC 1621.
Assay [30] concerns Staphylococcus epidermidis KCTC 1917.
Assay [31] relates to Pseudomonas aeruginosa KCTC 2513.
The test system of assay [32] is Escherichia coli CCARM 1238.
Assay [33] deals with Escherichia coli ATCC 25922.
For assay [34], the system named is Staphylococcus aureus ATCC 25923.
Assay [35] relates to Pseudomonas aeruginosa ATCC 27853.
For assay [36], the system named is Enterococcus faecalis ATCC 29212.
Assay [37] relates to Pseudomonas aeruginosa CMCCB 1010.
The subject of assay [38] is Serratia marcescens ATCC 8100.
The test system of assay [39] is Salmonella enterica subsp. enterica serovar Typhimurium ATCC 14028.

Converted amounts (≈) assume the structure as drawn.

For `CC[C@H](C)[C@H](NC(=O)CNC(=O)[C@H](CCCN=C(N)N)NC(=O)[C@H](C)NC(=O)[C@@H](NC(=O)[C@H](Cc1cnc[nH]1)NC(=O)[C@H](Cc1cnc[nH]1)NC(=O)[C@H](Cc1ccccc1)NC(=O)[C@@H](N)Cc1ccccc1)[C@@H](C)CC)C(=O)N[C@H](C(=O)N[C@@H](Cc1cnc[nH]1)C(=O)N[C@H](C(=O)NCC(=O)N[C@@H](CCCCN)C(=O)N[C@H](C(=O)N[C@H](C(=O)N[C@@H](Cc1cnc[nH]1)C(=O)N[C@@H](CCCN=C(N)N)C(=O)N[C@@H](CC(C)C)C(=O)N[C@H](C(=O)N[C@H](C(=O)NCC(=O)O)[C@@H](C)O)C(C)C)[C@@H](C)CC)[C@@H](C)O)C(C)C)C(C)C` [FFHHIARGIVHVGKTIHRLVTG], the MIC in [1] is not below 32 µM; in assay [2], 2 µM (≈ 4.99 µg/mL); in [3], not below 32 µM; in [4], not below 32 µM; in assay [5], 2 µM (≈ 4.99 µg/mL); in assay [6], 4 µM (≈ 9.98 µg/mL). Further, the MIC in assay [7] amounted to 16 µM (≈ 39.9 µg/mL); in [8], 4 µM (≈ 9.98 µg/mL); in assay [9], 16 µM (≈ 39.9 µg/mL); in [10] it was 16 µM (≈ 39.9 µg/mL); in assay [11], 4 µM (≈ 9.98 µg/mL); in assay [12], 16 µM (≈ 39.9 µg/mL). Also, the MIC came to 2 µM (≈ 4.99 µg/mL) in assay [13]; 4 µM (≈ 9.98 µg/mL) in [14]; 8 µM (≈ 20 µg/mL) in assay [15]; 16 µM (≈ 39.9 µg/mL) in [16]; 2 µM (≈ 4.99 µg/mL) in assay [17]; 4 µM (≈ 9.98 µg/mL) in assay [18]. The MIC in assay [19] came to 4 µM (≈ 9.98 µg/mL); in assay [20], 4 µM (≈ 9.98 µg/mL); in assay [21] it was 4 µM (≈ 9.98 µg/mL); in assay [22], 16 µM (≈ 39.9 µg/mL); in assay [23], 16 µM (≈ 39.9 µg/mL); in [24], 4 µM (≈ 9.98 µg/mL). In addition, the MIC was 4 µM (≈ 9.98 µg/mL) in [25]; 4 µM (≈ 9.98 µg/mL) in assay [26]; 4 µM (≈ 9.98 µg/mL) in [27]; not below 32 µM in assay [28]; 4 µM (≈ 9.98 µg/mL) in assay [29]; 4 µM (≈ 9.98 µg/mL) in assay [30]. Moreover, the MIC in assay [31] was 16 µM (≈ 39.9 µg/mL); in assay [32], not below 32 µM.
On to `CC[C@H](C)[C@H](NC(=O)[C@H](CC(C)C)NC(=O)[C@@H](NC(=O)[C@@H](NC(=O)[C@H](C)NC(=O)[C@@H](NC(=O)[C@H](CC(N)=O)NC(=O)[C@H](CCCCN)NC(=O)[C@H](C)NC(=O)[C@@H](NC(=O)[C@H](CC(N)=O)NC(=O)[C@H](CCCCN)NC(=O)[C@H](C)NC(=O)[C@@H](NC(=O)[C@H](CC(=O)O)NC(=O)[C@H](CCSC)NC(=O)[C@H](Cc1ccccc1)NC(=O)CN)[C@@H](C)O)C(C)C)C(C)C)C(C)C)[C@@H](C)O)C(=O)N[C@@H](CC(=O)O)C(=O)N[C@@H](CCCCN)C(=O)N[C@@H](CC(C)C)C(=O)N[C@@H](CCCN=C(N)N)C(=O)N[C@H]1CSSC[C@@H](C(=O)O)NC(=O)CNC(=O)CNC(=O)[C@H]([C@@H](C)O)NC(=O)[C@H](C(C)C)NC(=O)[C@H](CCCCN)NC1=O` [GFMDTAKNVAKNVAVTLIDKLRCKVTGGC], for which the MIC in assay [33] was 13 µM (≈ 39.7 µg/mL); in the assay on Pseudomonas aeruginosa, 50 µM (≈ 153 µg/mL); in the assay with Klebsiella pneumoniae, 50 µM (≈ 153 µg/mL); against Shigella dysenteriae, not below 50 µM; in assay [34] it was 20 µM (≈ 61 µg/mL); in assay [35] it was 33 µM (≈ 101 µg/mL). Also, the MIC in assay [36] and in [37] was 20 µM (≈ 61 µg/mL) each time.
On to `CC[C@H](C)[C@H](NC(=O)[C@@H]1CCCN1C(=O)[C@H](CCCN=C(N)N)NC(=O)[C@@H]1CCCN1C(=O)CNC(=O)[C@@H]1CCCN1C(=O)[C@H](CCCN=C(N)N)NC(=O)[C@@H]1CCCN1C(=O)[C@H](Cc1ccccc1)NC(=O)[C@@H]1CCCN1C(=O)[C@H](CC(C)C)NC(=O)[C@@H]1CCCN1C(=O)[C@H](CCCN=C(N)N)NC(=O)[C@@H]1CCCN1)C(=O)O` [PRPLPFPRPGPRPI], for which the MIC in assay [33] is more than 128 µM; in assay [38], not below 128 µM; in assay [39], more than 128 µM; in assay [34], more than 128 µM; with Escherichia coli ML-35, not below 128 µM.
